Consider two substances from paper PMC4674085, “Towards Prebiotic Catalytic Amyloids Using High Throughput Screening” (PLoS ONE, 2015).

Data set [1] in a line: Plate reader 4NPA hydrolysis kinetics of purified peptide amyloids at pH 7.3. Type of data set: biochemical. As to conditions: 4NPA hydrolysis, pH 7.3 HEPES with zinc(II), 20 μM purified peptide. The protocol: The reaction buffer consisted of the same buffer as the fibrillization buffer without ZnCl2 and with 1.33 mM 4NPA prepared from a 100 mM stock in CH3CN. The samples of the amyloid library were mixed 1:3 with the reaction buffer yielding 40 μM peptide and, when present 250 μM zinc(II). The absorbance measurements were performed in a BMG Pherastar platereader with a 400 nm band-pass filter (10 nm bandwidth) in 96-well Nunclon Delta surface plates or 384-well Greiner Bio-One non-bind black μclear plates.
The kinetics assays performed on the purified peptides were prepared similarly except that the peptide concentration was 20 μM in the reaction. Furthermore, the various substrate concentrations and replicate samples were randomly distributed over the plate to minimize systematic errors. Various 4NPA concentrations (i.e. 0.1 mM, 0.2 mM, 0.4 mM, 0.6 mM, 1.0 mM) were added from a 100 times stock so that the final CH3CN concentration was always 1%. The linear part of the hydrolysis activity was fit with an extinction coefficient of ε = 9700 M^-1cm^-1 and corrected for the background reaction rate of buffer alone (v bg = 5.0 × 10^-6 Ms^-1) to obtain the initial reaction rate v 0. The average of the initial reaction rates at each substrate concentration were then fit to the Michaelis-Menten type kinetics to obtain k cat, K M and k cat/K M always calculated per monomer peptide. The background reaction rate was obtained similarly using 5 replicates.

Data set [2] can be described thus: Time-dependent 4NPA hydrolysis rate during fibrillization. The format is biochemical. The following applies: 50 μM peptide, 50 mM HEPES pH 7.3, 0.5 mM ZnCl2, 1 mM 4NPA, derivative of A400. The protocol: For more direct evidence that the amyloid is the catalytically active state, we attempted to measure the catalysis rate during the aggregation of 35 in order to correlate the amyloid formation with an increase in hydrolytic activity. Since the aggregation is too fast to measure a steady-state hydrolysis rate, an instantaneous time-dependent rate of 4NPA hydrolysis was calculated from the derivative of the A400 measurements (Fig 3A). In parallel, an identical sample was monitored at 218 nm for the β-strand-typical ellipticity (Fig 3C). Note that the absorbance of 50 mM HEPES prevented the measurement of a full spectrum (190–260 nm) under the identical aggregation conditions, however when performed with 10 mM HEPES, the spectrum clearly indicates a move towards increasing β-structure upon mixing the peptide with buffer at pH 7.3 (Figure B in S1 File). […]
Fig 3 Parallel kinetics of fibrillization and hydrolysis activity. Kinetics of fibrillization measured by CD (c) matches the appearance of the 4NPA hydrolysis activity (a). a) A stock of 35 at 200 μM in 10 mM HCl was diluted to a final concentration of 50 μM into 50 mM HEPES pH 7.3 with 0.5 mM ZnCl2 and 1 mM 4NPA. After ca. 10 s mixing time, the hydrolysis of 4NPA was recorded every 1 s for 20 min at 400 nm and the first derivative of this signal (the instantaneous rate) is plotted as a function of time. […]

A short description of data set [3]: Circular dichroism (CD), secondary structure of aggregates. The format is physicochemical. The following applies: 50 μM peptide in 10 mM HCl, time-stable spectrum. For orientation: CD spectra are sensitive to the conformation of chiral molecules.
A short description of data set [4]: Solubility of binary alternating Val/Ser peptides (supernatant vs precipitate, quantitated by total hydrolysis). Type of data set: physicochemical. As to conditions: 200 μM peptide, 50 mM HEPES buffer pH 7.3, fibrillization for 2 days. The text has this: A high β-aggregation propensity is essential for a combinatorial peptide library in the form of amyloids. To satisfy this requirement we profited from the well-documented observation that in aqueous environments, binary alternating sequences of hydrophobic-hydrophilic residues are prone to oligomerize into amphipathic β-structures. In these structures, the hydrophobic residues are buried at the interface of two β-sheets, leaving the hydrophilic residues on the surface. In keeping with the theme of a prebiotic fold, we wanted to use the shortest peptides that still guaranteed a high percentage of amyloidogenic peptides in the library. […]
For peptides that contain Tyr the concentration of the peptide was measured by diluting a 3–5 mM DMSO stock of the peptide 20-fold into 10 mM HCl and quickly measuring the UV spectrum to minimize the potential for aggregation (ε276 = 1500 M^-1cm^-1). Peptide 36 was quantitated during purification by C18 reversed phase HPLC using a calculated extinction coefficient of ε214 = 13963 M^-1cm^-1. The quantification of the VS peptides in Table 1 and peptide 34 was performed by total hydrolysis in 6 M HCl at 160°C for 2 h. The hydrolyzed samples were analyzed by C18 reversed-phase and the amount of Val or Ile was calculated by comparing the chromatographic peak areas to amino acid samples of known quantity.

Ends that are not written are not given here.

Regarding “Ac-YVHVHVAV-NH2 [Peptide 35, Ac-YVHVHVAV-CONH2]”, the “k cat/K M” value in data set [1] (0.1-1.0 mM 4NPA, 1% CH3CN, A400, Michaelis-Menten fit, per monomer peptide, triplicate (duplicate for 8, 27, 34, 35)) is 7.38 ± 0.63 M⁻¹ s⁻¹. Besides, in data set [1] (Michaelis-Menten fit), the “K M” value was 630 ± 100 µM. Further, the k cat in data set [1] (Michaelis-Menten fit, per monomer peptide) is on record as 0.463±0.039 10^-2s^-1. The “activity of the monomeric peptide (by extrapolation to t = 0)” value in data set [2] is on record as “not significantly above the background hydrolysis”. The “CD spectrum in 10 mM HCl” value in data set [3] was “mostly random coil”.
Consider VSVSVSV-NH2 [VSVSVSV-CONH2], for which the “peptide in solution after centrifugation at 25,000 g” value in data set [4] is recorded as “less than 5%”.
